Assay [1] concerns the target T1, VCB (VHL, elongin B, elongin C) (Homo sapiens, UniProt P40337).
T1 construct: VHL (UniProt: P40337, aa 1–213); His6 (N); made in house; host or cells: E. coli BL21 (DE3)
Kind of assay: FP displacement assay with VCB (binary and ternary KD, cooperativity). The assay is classed as binding. The method, then: Fluorescence polarization (FP) displacement assays with METTL3/14 (ref. [36]) and VCB[38–40] were performed following previous protocols with slight adaptations. All experiments were conducted in black Greiner 96-well half-area plates using a Tecan Spark 10 M plate reader, equipped with polarization filters coupled to a monochromator setup (λex = 480 nm, λem = 530 nm). Reaction mixtures for METTL3/14 contained 300 nM recombinant enzyme, 20 nM FAM-labelled displacement tracer (STM-FL[36]), and the test compounds at varying concentrations in 25 mM Tris HCl, pH 7.5, 100 mM NaCl, and 10% DMSO. For VCB, the mixtures contained 40 nM recombinant enzyme, 10 nM FAM-labelled probe (FAM-DEALAHyp[…], Tocris Bioscience), and the tested compounds, at varying concentrations, in 50 mM Tris, pH 7.5, 200 mM NaCl, 2 mM DTT, and 10% DMSO. […] All measurements were performed at least as technical triplicates. Polarization values (mP) were determined from polarization-specific parallel and orthogonal fluorescence intensities using the Tecan in-built calculation routine. Using GraphPad Prism 8.0.1, the FP values were normalized, and KD values were calculated using a 4-parameter Hill equation: y(% probe bound) = bottom + ([ligand]slope) × (top–bottom)/([ligand]slope + KD slope).

A further assay concerns the target T2, human VHL (Homo sapiens, UniProt P40337).
T2 construct: purchased Revvity
Kind of assay: HTRF human VHL binding kit. The note with it: VHL affinity in presence and absence of METTL3/14 (4 μM). Here is the method:
PROTACs binding to VHL or CRBN were measured using a homogeneous time-resolved fluorescence (HTRF) human VHL or CRBN binding kit (Revvity). Samples were prepared according to the manufacturer's protocol, with compounds diluted in the provided diluent while maintaining a constant DMSO concentration with a final concentration of 1.25%. For the ternary KD determinations, METTL3/14 was added at 4 μM, corresponding to approximately a 20- to 40-fold excess of binary KD, while all other component concentrations were kept as specified in the protocol. Measurements were performed in triplicate using a Tecan Spark 10 M plate reader, recording donor and acceptor emissions at λem_donor = 620 nm and λem_acceptor = 665 nm, respectively, following excitation of the HTRF donor at λex = 320 nm. The acceptor-to-donor emission ratio was calculated as ratio = signal 665 nm/signal 620 nm. Using GraphPad Prism 8.0.1, the fluorescence values were normalized, and KD values were calculated as specified above.

In another assay the test system is MOLM-13 cells. The assay is described as follows: Cell viability assay (CellTiter Glo 2.0). The class given is cell-based, human. To be noted: Homo sapiens, MOLM-13, 72 h; read-out: IC50 (cell viability inhibition). The method, then: To determine cell viability, MOLM-13 cells were treated with the indicated compounds in a 1 : 1 serial dilution, with pure DMSO (final: 0.1%) as the negative control. Briefly, 1000 cells were seeded in black Greiner half-area 96-well plates and incubated for 72 h with inhibitors from DMSO stocks under standard cultivation conditions. Then, Promega CellTiter Glo 2.0 reagent was added to each well according to the manufacturer's protocols, and luminescence was measured using a Tecan Spark 10 M. Experiments were conducted in technical triplicate. Data was normalized to the DMSO control and analyzed with GraphPad Prism 8.0.1 to determine EC50 values. Synergistic effects of venetoclax and AF151 on cell MOLM-13 viability were conducted accordingly, with dilution series of both compounds analyzed using the SynergyFinder+ webtoolkit.[57]
(ATP-based viability assays read luminescence as a measure of living cells.)

For the next assay, the system named is METTL3. Further details: method as in PMID 38194973. To be noted: cited from earlier work.

Structures are written as SMILES. Where “and” joins values, the source holds several entries; their conditions need not be identical. Equal values may be shown once. Read-outs that look alike come from different tables or passages of the source.

By Kd is commonly meant the constant that tells how readily two partners part at equilibrium. Usually IC50 stands for the midpoint of a concentration-inhibition curve. What is called DC50 is the concentration at which degradation of the target reaches its halfway point.

T1 sequence (P40337 whole entry, the tested form may be a part): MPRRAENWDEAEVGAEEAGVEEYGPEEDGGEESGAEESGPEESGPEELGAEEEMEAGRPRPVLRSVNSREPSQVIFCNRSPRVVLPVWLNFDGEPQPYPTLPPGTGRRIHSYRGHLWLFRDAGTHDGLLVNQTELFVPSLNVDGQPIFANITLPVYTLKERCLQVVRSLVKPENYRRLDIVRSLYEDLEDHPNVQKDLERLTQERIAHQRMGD
T1 sequence (Q15370 whole entry partner, the tested form may be a part): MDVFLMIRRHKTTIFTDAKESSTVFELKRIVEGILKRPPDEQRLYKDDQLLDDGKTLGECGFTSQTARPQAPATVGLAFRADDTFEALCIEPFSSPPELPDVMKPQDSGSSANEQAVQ
T1 sequence (Q15369 17-112 partner limits assumed): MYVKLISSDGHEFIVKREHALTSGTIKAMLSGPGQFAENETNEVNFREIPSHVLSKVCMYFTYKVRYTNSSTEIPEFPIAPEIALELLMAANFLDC
T2 sequence (P40337 whole entry): as the sequence (P40337 whole entry, the tested form may be a part) above
T2 sequence (Q15370 whole entry partner): as the sequence (Q15370 whole entry partner, the tested form may be a part) above
T2 sequence (Q15369 whole entry partner): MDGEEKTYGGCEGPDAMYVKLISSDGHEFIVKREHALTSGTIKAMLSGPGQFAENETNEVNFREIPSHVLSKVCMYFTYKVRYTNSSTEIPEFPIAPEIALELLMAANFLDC

Regarding `Cc1ncsc1-c1ccc([C@H](C)NC(=O)[C@@H]2C[C@@H](O)CN2C(=O)[C@@H](NC(=O)CCC#Cc2ccc(CNc3cc(N4CCC5(CC4)CN(c4cc(F)c(CN6CCC(C)(C)CC6)cc4F)CC(=O)N5)ncn3)cc2)C(C)(C)C)cc1` [WD6305], the Kd was 1700 nM in assay [1] (40 nM VCB, 10 nM probe, absence of METTL3, read-out: KD E3-ligases (VHL, FP), binary); 1760 ± 264 nM in assay [1] (absence of METTL3, read-out: KD binary (VHL)); 77.4 nM and 79 nM in assay [1] (presence of METTL3/14 (12 μM), read-out: KD ternary (VHL)). The “cooperativity (HTRF)” value on human VHL is listed as “positive cooperativity”. Also, the IC50 with MOLM-13 cells stood at 780 nM. The “Dmax (METTL3 degradation)” value in the assay on METTL3 is recorded as ~91%. Moreover, the DC50 with METTL3 (read-out: DC50 (METTL3 degradation)) was 140 nM.

These data come from PMC12207533, “Structure-guided design of a methyltransferase-like 3 (METTL3) proteolysis targeting chimera (PROTAC) incorporating an indole–nicotinamide chemotype” (RSC Medicinal Chemistry, 2025).
